From patent US20160160224A1, “CRYPTOSPORIDIUM TRANSFECTION METHODS AND TRANSFECTED CRYPTOSPORIDIUM CELLS” (UNIVERSITY OF GEORGIA RESEARCH FOUNDATION, INC., priority 2013, published 2016)

System: C. parvum
Test: Nluc luciferase assay of transfected C. parvum cultured in HCT-8 cells in the presence of drug
Assay type: cell-based, Cryptosporidium parvum
Settings: electroporated (Nluc-transfected) C. parvum grown in paramomycin on HCT-8 host cells; FIG. 3D
From the text: Next, we performed transfections and then cultured the transfected parasites in the presence of paramomycin, a drug that reduces growth of C. parvum but not the mammalian host cell. […] (FIG. 3D). We also tested an Nluc plasmid that lacks the Cryptosporidium promoter but carries Toxoplasma flanking sequences instead. […] Lastly, we tested whether parasite vectors can transduce host cells by deliberately delivering plasmid DNA into the HCT-8 host cell cytoplasm by lipofection. […] Collectively these measurements confirm that Apicomplexa and mammals have divergent primary sequence elements that drive transcription and subsequent RNA processing. Cryptosporidium transfection therefore depends on the introduction of a parasite species specific vector into viable parasites. Moreover, passive DNA delivery into the host is not relevant for activity and host cells are not transfected even when DNA is deliberately introduced into the host. […]
For in vitro experiments, cells were scraped from T-25 flasks or 24-well plates and collected after 48 hours of incubation. […] After five minutes of incubation at room temperature, the cell lysate was added to white 96 well plates and luminescence was measured on a luminometer (BioTek Instruments, Inc., Winooski, Vt.). The read out was quantified in terms of relative luminescence units (RLU).

In the case of `NC[C@@H]1O[C@H](O[C@H]2[C@@H](O)[C@H](O[C@@H]3[C@@H](O)[C@H](N)C[C@H](N)[C@H]3O[C@H]3O[C@H](CO)[C@@H](O)[C@H](O)[C@H]3N)O[C@@H]2CO)[C@H](N)[C@@H](O)[C@@H]1O` [Paramomycin, paramomycin], the “Nluc expression (luciferase activity)” value is reported as “reduction of Nluc expression”.
